“Also recorded” adds a separate entry of the source.
What was measured:
[1] = tested on: main EC degrading enzymes (FAAH, MAGL); test: Stability towards endocannabinoid degrading enzymes; assay type: in vitro ADME
Method: (§1) FAAH, ABHDs, MAGL and COX-2 activity assays were performed using cell homogenates, human recombinant enzymes and mouse, rat and pig brain homogenates as previously described.

C57BL6/N mice [2] = test: Elevated plus maze (EPM); assay type: in vivo, mouse; conditions: 3 mg/kg
Method: (§2) WOBE437 was initially assessed in a battery of four individual tests typically associated with CB1 receptor activation in mice (nociception, locomotion, body temperature and cataleptic behavior), collectively referred to as the “tetrad”. Dose-response experiments identified 10 mg/kg as the lowest dose to elicit a moderate but complete tetrad in BALB/c mice upon intraperitoneal (i.p.) administration (FIGS. 3A-D). […] To assess whether the WOBE437-induced effects were CB1 receptor-mediated, mice were pre-treated with the selective antagonist/inverse agonist rimonabant (SR1). […] These experiments provided a proof-of-concept for the mechanism of action of WOBE437 as a novel “indirect CB1 receptor agonist”. In subsequent studies, the effects of WOBE437 in pain, inflammatory and anxiety models were investigated. […] Both effects were reversed by SR1.
(§3) WOBE437 and RX-055 were tested in independent laboratories, in different mouse strains and in multiple (behavioral) models for cannabimimetic, analgesic, anti-inflammatory and anxiolytic-effects in wild-type and phenotypical CB1-KO mice as described in Chicca 2017.

[3] = tested on: AEA uptake in Neuro2a mouse neuroblastoma cells; test: AEA uptake inhibition in Neuro2a cells; assay type: cell-based
Method: (§4) All radioactivity-based AEA and 2-AG uptake and release assays performed in U937, and HMC-1 cells were carried out using two different assay formats as previously reported. AEA and 2-AG uptake assay in Neuro2a and primary mouse cortical neurons were performed with a different method disclosed in Chicca 2017.

C57BL6/N mice [4] = test: Holeboard (HB) test; assay type: in vivo, mouse; conditions: 3 mg/kg, 1 h post injection
Method: as §2, §3

[5] = Microsomal clearance, human liver microsomes; assay type: in vitro ADME
Method: Human or mice microsome clearance experiment were carried out as according to a previously describe protocol. Briefly, microsome preparation (0.5 mg/mL) plus cofactor NADPH solution was incubated with 1 μM of WOBE437 in 96-well plates at 37° C. After 1, 3, 6, 9, 15, 25, 35 and 45 min, 40 μL of the preparation was transferred and quenched with 3:1 (v/v) acetonitrile containing internal standards. Samples were then cooled and centrifuged before analysis by LC-MS/MS. Log peak area ratios (test compound peak area/internal standard peak area) are plotted against incubation time using a linear fit. The calculated slope is used to determine the intrinsic clearance. Data are obtained from single experiments measured with multiple time-points.

mice = test: Formalin test; assay type: in vivo, mouse; conditions: comparable to indomethacin (5 mg/kg)
Method: as §2, §3

[6] = molecular target: fatty acid binding protein 5 (FABP5) (Homo sapiens, UniProt Q01469); test: FABP5 binding
fatty acid binding protein 5 (FABP5), sequence (Q01469 whole entry, species assumed): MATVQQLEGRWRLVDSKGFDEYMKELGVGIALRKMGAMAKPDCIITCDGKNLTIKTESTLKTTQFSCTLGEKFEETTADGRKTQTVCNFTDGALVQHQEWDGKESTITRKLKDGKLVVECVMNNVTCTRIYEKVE

AEA uptake in U937 cells = test: AEA uptake inhibition in U937 cells; assay type: cell-based
Method: Based on the natural product (2E,4E)-N-isobutylamidedodeca-2,4-dienamide from the medicinal plant E. purpurea as a starting point, a library of 634 of analogs and derivatives with varying alkyl chain length was synthesized, and structure of the head group moiety analyzed. All new derivatives were tested for AEA uptake inhibition in U937 cells using a high-content screening assay.
as §4

FAAH = FAAH (Homo sapiens, UniProt O00519); test: FAAH activity / AEA hydrolysis assay; assay type: biochemical; conditions: human recombinant enzyme, cell and brain homogenates; read-out: IC50 for AEA hydrolysis (FAAH) inhibition
FAAH, sequence (O00519 whole entry): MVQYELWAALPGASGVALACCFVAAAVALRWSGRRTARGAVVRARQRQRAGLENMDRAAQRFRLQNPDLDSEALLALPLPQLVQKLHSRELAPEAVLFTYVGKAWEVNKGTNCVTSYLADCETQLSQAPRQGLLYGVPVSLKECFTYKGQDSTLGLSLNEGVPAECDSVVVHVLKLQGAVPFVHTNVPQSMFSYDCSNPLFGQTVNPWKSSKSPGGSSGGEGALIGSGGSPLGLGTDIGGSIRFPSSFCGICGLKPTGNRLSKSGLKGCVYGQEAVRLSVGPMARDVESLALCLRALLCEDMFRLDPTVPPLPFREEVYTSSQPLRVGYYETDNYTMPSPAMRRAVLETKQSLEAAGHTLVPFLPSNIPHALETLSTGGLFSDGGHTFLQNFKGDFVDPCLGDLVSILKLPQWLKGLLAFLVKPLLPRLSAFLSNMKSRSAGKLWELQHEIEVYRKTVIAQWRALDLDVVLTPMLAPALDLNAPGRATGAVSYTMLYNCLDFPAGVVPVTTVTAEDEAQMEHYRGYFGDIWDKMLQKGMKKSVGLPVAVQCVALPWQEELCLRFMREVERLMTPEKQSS
Method: as §1

[7] = tested on: 2-AG uptake in U937 cells; test: 2-AG uptake inhibition in U937 cells; assay type: cell-based
Method: as §4

ABHD12 = molecular target: T1, ABHD12 (Mus musculus, UniProt Q99LR1); test: ABHD12 activity (ABPP and radioactivity-based hydrolytic assays); assay type: biochemical; conditions: ABPP in mouse brain homogenate and hydrolytic assays
T1 construct: membrane preparations obtained from mouse brains; from tissue; host or cells: mouse brain membranes
T1 sequence (Q99LR1 whole entry): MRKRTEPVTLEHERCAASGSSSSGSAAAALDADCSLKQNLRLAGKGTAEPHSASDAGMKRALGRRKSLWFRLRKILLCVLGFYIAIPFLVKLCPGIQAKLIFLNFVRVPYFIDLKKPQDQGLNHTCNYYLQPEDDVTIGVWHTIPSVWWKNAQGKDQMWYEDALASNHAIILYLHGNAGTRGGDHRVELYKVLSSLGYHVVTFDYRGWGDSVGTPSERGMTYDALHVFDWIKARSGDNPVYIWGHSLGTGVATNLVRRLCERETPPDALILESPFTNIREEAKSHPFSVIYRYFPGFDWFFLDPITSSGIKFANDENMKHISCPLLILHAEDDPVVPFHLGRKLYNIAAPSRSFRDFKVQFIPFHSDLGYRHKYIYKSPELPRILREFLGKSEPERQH
Method: ABPP experiments were performed using membrane preparations obtained from mouse brains as described earlier.
as §1

CB2 receptor = CB2 receptor (Homo sapiens, UniProt P34972); test: CB2 receptor binding assay
CB2 receptor, sequence (P34972 whole entry): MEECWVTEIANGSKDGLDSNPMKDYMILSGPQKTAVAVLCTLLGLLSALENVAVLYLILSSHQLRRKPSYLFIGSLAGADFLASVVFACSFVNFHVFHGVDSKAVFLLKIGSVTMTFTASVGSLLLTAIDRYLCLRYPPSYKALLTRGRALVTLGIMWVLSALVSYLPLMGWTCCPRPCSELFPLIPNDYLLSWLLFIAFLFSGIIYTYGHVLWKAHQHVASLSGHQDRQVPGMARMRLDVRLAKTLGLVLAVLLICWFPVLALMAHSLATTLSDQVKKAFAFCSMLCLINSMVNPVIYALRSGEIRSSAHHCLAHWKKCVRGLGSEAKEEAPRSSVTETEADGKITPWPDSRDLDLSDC
Method: CB1 and CB2 receptor binding assays [^35S]GTPγS assays were performed as previously described. WOBE437 was profiled in more detail in an extended CNS adverse drug reaction screening panel (CEREP).

BALB/c mice = test: Open field test in monoarthritic mice; assay type: in vivo, mouse
Method: Potential motor changes were evaluated in an open field box (40×40×30 cm, Plexiglas). The mice were individually placed in the center and allowed to move freely for 5 min. The locomotion activity was recorded with the OpenFieldTest© and traveled distance was evaluated automatically. After every experiment, the box was cleaned with 70% ethanol to remove odors.

Question: For `CCCCCCC/C=C/C=C/C(=O)NCCc1ccc(OC)c(OC)c1` [WOBE437, (2E,4E)-N-[2-(3,4-Dimethoxyphenyl)ethyl]dodeca-2,4-dienamide], which “stability in the presence of the main EC degrading enzymes” value [1] is on record?
Answer: Its value is “completely stable; also recorded: not affected by the hydrolytic activity of FAAH and MAGL”.

Question: And the “anxiolytic effect after SR1” value (C57BL6/N mice [2])?
Answer: The value was “completely blocked by SR1”.

Question: What about the “number of entries and time spent in open arms” value (C57BL6/N mice [2]; vs vehicle) of the same compound?
Answer: The value was “significantly increased”.

Question: And the “Hill slope, AEA uptake” value ([3]; Neuro2a cells)?
Answer: The value was −0.705.

Question: And the inhibition at 1 µM ([3]; mouse/rat NG108-15, N2a, 2-10 min of incubation)?
Answer: Its inhibition at 1 µM is 35%.

Question: And the inhibition at 1 µM ([3]; mouse/rat NG108-15, N2a, 15-20 min of incubation)?
Answer: The inhibition at 1 µM was 20%.

Question: What about the IC50 ([3]; mouse/rat NG108-15, N2a, Neuro2a cells) of the same compound?
Answer: The IC50 was 55 ± 18 nM.

Question: And the head dipping frequency (C57BL6/N mice [4])?
Answer: Its head dipping frequency is “significantly increased”.

Question: What about the clearance ([5]; 1 μM, preliminary) of the same compound?
Answer: Its clearance is 657 µL/min/kg.

Question: And the bioavailability at 1 μM ([5]; human, humans, from microsomal clearance, read-out: estimated maximal bioavailability)?
Answer: The bioavailability at 1 μM was 4%.

Question: And the “inflammatory pain and paw thickness” value (mice)?
Answer: Its value is “reduced inflammatory pain and paw thickness”.

Question: What about the “binding to FABP5” value [6] of the same compound?
Answer: Its value is “no binding”.

Question: And the “residual AEA and 2-AG reuptake upon treatment” value (AEA uptake in U937 cells)?
Answer: Its value is 20-30%.

Question: What about the “selectivity for AEA uptake over FAAH / AEA hydrolysis” value (AEA uptake in U937 cells) of the same compound?
Answer: Its value is 1000 fold.

Question: And the IC50 (AEA uptake in U937 cells; Homo sapiens, U-937, U937 cells, 100 nM total AEA)?
Answer: The IC50 was 10 ± 8 nM.

Question: What about the “Hill slope, AEA uptake” value (AEA uptake in U937 cells; U937 cells, multiphase AEA uptake assay) of the same compound?
Answer: Its value is −0.715.

Question: And the “type of AEA uptake inhibition (Michaelis-Menten analysis)” value (AEA uptake in U937 cells; intact U937 cells)?
Answer: The value was “competitive”.

Question: What about the “reversibility of AEA uptake inhibition” value (AEA uptake in U937 cells; rapid dilution assay) of the same compound?
Answer: The value was “reversible”.

Question: And the IC50 (FAAH)?
Answer: The IC50 was no less than 10 µM.

Question: What about the “Hill slope, 2-AG uptake” value [7] of the same compound?
Answer: The value was −0.973.

Question: What about the IC50 ([7]; Homo sapiens, U-937, 1 μM total 2-AG) of the same compound?
Answer: Its IC50 is 283 ± 121 nM.

Question: What about the “inhibition of ABHD12” value (ABHD12) of the same compound?
Answer: Its value is “did not inhibit”.

Question: What about the Ki (CB2 receptor) of the same compound?
Answer: Its Ki is 48 µM.

Question: What about the spontaneous motor activity (BALB/c mice) of the same compound?
Answer: The spontaneous motor activity was “without significant observable changes”.
